In brackets after ≈: the same amount, converted by molar mass. Read-outs that look alike come from different tables or passages of the source.
How the values were obtained:
[1] = pH 7.3 (physiological pH); cited from earlier work
BChE [2] = target: T1, BChE (Homo sapiens, UniProt P06276); conditions: previous study; cited from earlier work
eAChE = conditions: read-out: IC50 against eAChE, cited from earlier work
rat cerebral cortex AChE = conditions: read-out: IC50, rat cerebral cortex AChE; cited from earlier work
AChE [3] = conditions: cited from earlier work
BChE [4] = target: T1, BChE; assay: BChE inhibition by IPA; assay type: biochemical; conditions: data not shown
AChE [5] = assay: AChE inhibition by IPA; assay type: biochemical; conditions: data not shown
[6] = ABTS radical scavenging activity; conditions: read-out: IC50, ABTS radical scavenging
FRAP activity = conditions: CUR-IPA 50 to 250 μM; ascorbic acid 2 to 10 μM
[7] = DPPH radical scavenging activity; conditions: read-out: IC50, DPPH radical scavenging

T1 sequence (P06276 29-602): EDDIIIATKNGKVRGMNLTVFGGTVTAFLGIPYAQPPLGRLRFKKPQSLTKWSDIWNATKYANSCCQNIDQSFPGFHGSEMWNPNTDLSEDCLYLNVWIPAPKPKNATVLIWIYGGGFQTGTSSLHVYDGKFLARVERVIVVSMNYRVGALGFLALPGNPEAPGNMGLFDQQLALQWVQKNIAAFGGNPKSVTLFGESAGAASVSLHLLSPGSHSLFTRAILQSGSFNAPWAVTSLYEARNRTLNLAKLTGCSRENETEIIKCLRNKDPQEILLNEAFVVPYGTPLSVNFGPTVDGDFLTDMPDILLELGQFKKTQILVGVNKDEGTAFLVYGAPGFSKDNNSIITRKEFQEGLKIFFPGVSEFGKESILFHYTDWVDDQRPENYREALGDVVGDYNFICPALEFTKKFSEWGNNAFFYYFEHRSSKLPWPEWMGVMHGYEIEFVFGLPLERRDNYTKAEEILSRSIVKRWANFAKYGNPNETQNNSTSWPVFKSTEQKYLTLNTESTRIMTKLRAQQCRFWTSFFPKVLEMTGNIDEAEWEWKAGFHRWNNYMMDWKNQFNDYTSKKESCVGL

SMILES: COc1cc(C=CC(=O)CC(=O)C=Cc2ccc(O)c(OC)c2)ccc1O [CUR, 1,7-bis(4-hydroxy-3-methoxyphenyl)-1,6-heptadiene-3,5-dione]
- solubility [1]: 0.4 µg/mL (≈ 1.09 µM)
- inhibition against BChE (BChE [2]): did not show inhibition
- IC50 (eAChE; another study): 67.7 µM
- IC50 (eAChE; previous study): 51.8 µM
- IC50 (rat cerebral cortex AChE): 10 µM
- effect on AChE activity in the ex vivo model (AChE [3]): did not affect AChE activity

SMILES: O=C(O)CCc1c[nH]c2ccccc12 [IPA, Indole-3-propionic acid]
- concentration showing inhibition against BChE (BChE [4]): ≥ 500 µM
- concentration showing inhibition against AChE (AChE [5]): ≥ 500 µM

SMILES: O=C1O[C@H]([C@@H](O)CO)C(O)=C1O [ascorbic acid]
- IC50 [6]: 15.8 µM
- FRAP activity (FRAP activity): present linearly
- IC50 [7]: 34.5 µM

Source: article PMC11904713 (ACS Omega, 2025)
